Reference: article PMC9038691, “A structural exposé of noncanonical molecular reactivity within the protein tyrosine phosphatase WPD loop” (Nature communications, 2022)
One block for each compound: values may come before it.

What was measured:
AtPFA-DSP1^49–215 = target: T1, AtPFA-DSP1^49–215 (Arabidopsis thaliana, UniProt Q9ZVN4, C150S); assay: X-ray crystal structure (soak); type: binding; conditions: active site
T1 construct: core catalytic domain, residues 49-215; N-terminal 6xHis-MBP tag cut with TEV protease; E. coli; monomer in solution

AtPFA-DSP1 (full-length) = target: T2, AtPFA-DSP1 (full-length) (Arabidopsis thaliana, UniProt Q9ZVN4); assay: malachite green Pi release; type: biochemical; conditions: pH 7.2, 30 °C, 100 mM KCl, 0.8 mM MgCl2
T2 construct: full-length (codon-optimized cDNA, Genscript); pDest-566, N-terminal 6xHis-MBP tag cut with TEV protease; E. coli
T2 sequence (Q9ZVN4 whole entry): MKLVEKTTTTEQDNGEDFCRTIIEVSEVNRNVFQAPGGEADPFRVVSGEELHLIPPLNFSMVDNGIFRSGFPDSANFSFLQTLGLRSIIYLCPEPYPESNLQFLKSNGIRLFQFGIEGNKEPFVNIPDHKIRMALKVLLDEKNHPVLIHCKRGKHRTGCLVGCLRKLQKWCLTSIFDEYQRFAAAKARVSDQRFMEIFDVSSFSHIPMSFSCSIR

T1 sequence (Q9ZVN4 49-215 C150S): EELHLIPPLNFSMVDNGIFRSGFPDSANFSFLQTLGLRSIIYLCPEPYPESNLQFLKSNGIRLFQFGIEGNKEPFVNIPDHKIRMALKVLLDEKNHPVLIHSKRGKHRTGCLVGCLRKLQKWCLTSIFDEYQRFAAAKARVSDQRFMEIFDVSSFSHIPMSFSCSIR

SMILES: O=P(O)(O)O[C@H]1[C@@H](OP(=O)(O)O)[C@H](OP(=O)(O)O)[C@@H](OP(=O)(O)OP(=O)(O)O)[C@H](OP(=O)(O)O)[C@H]1OP(=O)(O)O [5-InsP7, 5-diphosphoinositol 1,2,3,4,6-pentakisphosphate]
X-ray crystal structure (soak) (AtPFA-DSP1^49–215; substrate-trapping mutant, displaces Pi): it could now be successfully substituted by 5-InsP7

Km (AtPFA-DSP1 (full-length)): (c), 6-InsP7
SMILES: O=P(O)(O)O[C@H]1[C@@H](OP(=O)(O)O)[C@@H](OP(=O)(O)O)[C@H](OP(=O)(O)OP(=O)(O)O)[C@@H](OP(=O)(O)O)[C@@H]1OP(=O)(O)O [6-InsP7, 6-diphosphoinositol 1,2,3,4,5-pentakisphosphate]

SMILES: O=P(O)(O)O[C@@H]1[C@@H](OP(=O)(O)OP(=O)(O)O)[C@H](OP(=O)(O)O)[C@@H](OP(=O)(O)O)[C@@H](O)[C@H]1OP(=O)(O)O [5-PP-InsP4, 5-diphosphoinositol 1,3,4,6-tetrakisphosphate]
X-ray crystal structure (soak) (AtPFA-DSP1^49–215; beta-IN and beta-OUT poses, the latter together with Pi): instructive crystals of AtPFA-DSP1 in complex with 5-PP-InsP4
